Assay results published in US9193725B2, “Cyclic hydrazine derivatives as HIV attachment inhibitors” (priority 2012, dated 2015).
Where two headings read alike, the source gives them in different places.

System: HIV-1 LAI envelope single-round infectious reporter virus
Experiment: Single-round infectious luciferase reporter virus (HIV-1 LAI envelope) infection of MT2 cells
Type: cell-based
Settings: Human immunodeficiency virus 1, MT2, 72 h
From the text: • Virus production—Human embryonic Kidney cell line, 293T (HEK 293T), was propagated in Dulbecco's Modified Eagle Medium (Invitrogen, Carlsbad, Calif.) containing 10% fetal bovine serum (FBS, Sigma, St. Louis, Mo.). The human T-cell leukemia cell MT2 (AIDS Research and Reference Reagent Program, Cat. 237) was propagated in RPMI 1640 (Invitrogen, Carlsbad, Calif.) containing 10% fetal bovine serum (FBS, Hyclone, Logan, Utah) • Virus infection—Single-round infectious reporter virus was produced by co-transfecting HEK 293T cells with plasmide expressing the HIV-1 LAI envelope along with a plasmid containing an HIV-1 LAI proviral cDNA with the envelope gene replaced by a firefly luciferase reporter gene (Chen et al., Ref 41). Transfections were performed using lipofectAMINE PLUS reagent as described by the manufacturer (Invitrogen, Carlsbad, Calif.). Experimental Procedure • 1. MT2 cells were plated in black, 384 well plates at a cell density of 5×10^3 cells per well in 25 μl RPMI 1640 containing 10% FBS. • 2. Compound (diluted in dimethylsulfoxide and growth medium) was added to cells at 12.5 μl/well, so that the final assay concentration would be ≦50 nM. • 3. 12.5 μl of single-round infectious reporter virus in Dulbecco's Modified Eagle Medium was added to the plated cells and compound at an approximate multiplicity of infection (MOI) of 0.01, resulting in a final volume of 50 μl per well. • 4. Virus-infected cells were incubated at 37 degrees Celsius in a CO2 incubator and harvested 72 h after infection. • 5. Viral infection was monitored by measuring luciferase expression in the infected cells using a luciferase reporter gene assay kit (Steady-Glo, Promega, Madison, Wis.) as described by the manufacturer. Luciferase activity was then quantified by measuring luminescence using an EnVision Multilabel Plate Readers (PerkinElmer, Waltham, Mass.). • 6. The percent inhibition for each compound was calculated by quantifying the level of luciferase expression in cells infected in the presence of each compound as a percentage of that observed for cells infected in the absence of compound and subtracting such a determined value from 100. • 7. An EC50 provides a method for comparing the antiviral potency of the compounds of this disclosure. The effective concentration for fifty percent inhibition (EC50) was calculated with the Microsoft Excel Xlfit curve fitting software. For each compound, curves were generated from percent inhibition calculated at 10 different concentrations by using a four parameter logistic model (model 205). Table 1 is the key for the data in Table 2.

[1] = read-out: EC50 Group from Table 1

Structure (SMILES) | EC50 [1] [nM] | EC50 [nM]
COc1cnc(-n2cnc(C)n2)c2[nH]cc(C(=O)C(=O)N3C(C)Cc4c(-c5ccccc5)ncnc4N3C)c12 (stereo not drawn) [Compound 2003, 1-(1,3-dimethyl-5-phenyl-3,4-dihydropyrimido[4,5-c]pyridazin-2(1H)-yl)-2-(4-methoxy-7-(3-methyl-1H-1,2,4-triazol-1-yl)-1H-pyrrolo[2,3-c]pyridin-3-yl)ethane-1,2-dione] | < 500 | –
COc1cnc(-n2cnc(C)n2)c2[nH]cc(C(=O)C(=O)N3CCc4c(-c5ccccc5)ncnc4N3C)c12 [Compound 2001, 1-(4-methoxy-7-(3-methyl-1H-1,2,4-triazol-1-yl)-1H-pyrrolo[2,3-c]pyridin-3-yl)-2-(1-methyl-5-phenyl-3,4-dihydropyrimido[4,5-c]pyridazin-2(1H)-yl)ethane-1,2-dione] | < 500 | –
COc1cnc(-n2cnc(C)n2)c2[nH]cc(C(=O)C(=O)N3CC/C(=C(/C#N)c4ccccc4)CN3C)c12 [Compound 1006, (Z)-2-(1-(2-(4-methoxy-7-(3-methyl-1H-1,2,4-triazol-1-yl)-1H-pyrrolo[2,3-c]pyridin-3-yl)-2-oxoacetyl)-2-methylpiperazin-4-ylidene)-2-phenylacetonitrile] | < 500 | 456
COc1cnc(-n2cnc(C)n2)c2[nH]cc(C(=O)C(=O)N3CCc4c(-c5ccccn5)ncnc4N3C)c12 [Compound 2002, 1-(4-methoxy-7-(3-methyl-1H-1,2,4-triazol-1-yl)-1H-pyrrolo[2,3-c]pyridin-3-yl)-2-(1-methyl-5-(pyridin-2-yl)-3,4-dihydropyrimido[4,5-c]pyridazin-2(1H)-yl)ethane-1,2-dione] | < 500 | –
COc1cnc(-n2cnc(C)n2)c2[nH]cc(C(=O)C(=O)N3CC/C(=C(\C#N)c4ccccc4)CN3)c12 [Compound 1002] | < 500 | 0.29
COc1cnc(-n2cnc(C)n2)c2[nH]cc(C(=O)C(=O)N3CCc4c(ncnc4-c4ccccc4)N3)c12 [Compound 2004, 1-(4-methoxy-7-(3-methyl-1H-1,2,4-triazol-1-yl)-1H-pyrrolo[2,3-c]pyridin-3-yl)-2-(5-phenyl-3,4-dihydropyrimido[4,5-c]pyridazin-2(1H)-yl)ethane-1,2-dione] | < 500 | –
N#C/C(=C1\CCN(C(=O)C(=O)c2c[nH]c3c(-n4ccnn4)ncc(F)c23)NC1)c1ccccc1 [Compound 1001] | < 500 | –
